This note sets out measurements from ChEMBL document CHEMBL5052850, “Compounds and methods targeting qsox1” (2021).

One assay relates to MCF-10A. The assay can be described thus: Antiinvasive activity against human MCF-10A cells measured spheroid invasion assay. The assay is classed as functional, cell-based.
Assay [1] deals with 786-0. Briefly: Antiinvasive activity against human 786-0 cells measured spheroid invasion assay. The assay is classed as functional, cell-based.
The subject of the next assay is UOK117. The assay can be described thus: Antitumor activity in human UOK117 cells xenografted nude mouse assessed as suppression of tumor growth. Format: functional, cell-based. (In general: In xenograft studies the graft and the host belong to different species.)
The subject of assay [2] is MDA-MB-231. The assay can be described thus: Anticancer activity against human MDA-MB-231 cells at 156.25 to 1250 uM assessed as suppression of tumor cell tendrils spreading formation measured by 3D tumor cell spheroid assay. The assay is classed as functional, cell-based. Particulars: dose 156.25-1250 µM.
The test system of assay [3] is 786-0. Briefly: Antitumor activity in human 786-0 cells xenografted immunodeficient mouse assessed as reduction in tumor growth at 14 mg/kg/day, po. Format: functional. Particulars: 786-0, po, read-out: TGI.
The next assay relates to RCJ-41T2. Briefly: Antiinvasive activity against human RCJ-41T2 cells at 156.25 to 1250 uM measured spheroid invasion assay. The assay is classed as functional, cell-based. Particulars: dose 156.25-1250 µM.
In assay [4] the target is T1, Sulfhydryl oxidase 1 (Homo sapiens) (UniProt O00391).
T1 sequence (whole entry): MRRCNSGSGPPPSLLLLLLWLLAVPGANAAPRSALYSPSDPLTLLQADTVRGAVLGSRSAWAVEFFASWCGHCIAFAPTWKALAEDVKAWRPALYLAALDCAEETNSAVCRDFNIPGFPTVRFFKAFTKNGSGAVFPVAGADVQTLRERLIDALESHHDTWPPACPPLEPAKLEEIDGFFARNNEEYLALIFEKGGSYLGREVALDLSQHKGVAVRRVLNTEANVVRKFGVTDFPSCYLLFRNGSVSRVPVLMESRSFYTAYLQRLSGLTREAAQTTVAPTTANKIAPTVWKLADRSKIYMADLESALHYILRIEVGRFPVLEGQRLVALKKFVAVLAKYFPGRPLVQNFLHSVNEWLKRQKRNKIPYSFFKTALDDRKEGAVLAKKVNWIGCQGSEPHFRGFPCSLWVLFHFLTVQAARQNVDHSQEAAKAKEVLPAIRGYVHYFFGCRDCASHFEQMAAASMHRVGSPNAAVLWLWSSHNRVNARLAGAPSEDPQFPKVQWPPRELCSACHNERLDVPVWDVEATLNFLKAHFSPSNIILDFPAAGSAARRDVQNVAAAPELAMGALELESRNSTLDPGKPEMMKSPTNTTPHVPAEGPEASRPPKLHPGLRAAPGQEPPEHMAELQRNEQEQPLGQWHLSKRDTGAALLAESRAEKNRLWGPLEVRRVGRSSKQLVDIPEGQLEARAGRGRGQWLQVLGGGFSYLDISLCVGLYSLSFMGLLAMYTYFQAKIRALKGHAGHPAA
The assay can be described thus: Inhibition of QSOX1 (unknown origin) at 6.25 to 50 uM relative to control. Particulars: dose 6.25-50 µM.

In the next assay the target is T2, Sulfhydryl oxidase 1 (Homo sapiens, UniProt O00391).
T2 sequence (O00391 whole entry): T1 sequence (whole entry)
Briefly: Binding affinity towards QSOX1 (unknown origin) measured by microscale thermophoresis assay.

For the next assay, the system named is MIA PaCa-2. Briefly: Antiinvasive activity against human MIA PaCa-2 cells measured spheroid invasion assay. The assay is classed as functional, cell-based.
Assay [5] has as its system MDA-MB-231. Briefly: Antitumor activity in human MDA-MB-231-Luc cells xenografted immunodeficient mouse assessed as reduction in lung metastasis at 100 mg/kg, po administered for 28 days. Particulars: time 28 day. More on the design: scale not given: the % may be the effect or the level left. The assay is classed as functional.

Calls of active or inactive are those of the source. The calls are words filed in the database; no cut-off is given here.

As to `COc1cccc(C(=O)Nc2ccc(N3CCCC3)cc2)c1`, the result in the assay on MCF-10A, in the assay on 786-0 [1], in the assay on UOK117, in the assay on MDA-MB-231 [2], with RCJ-41T2 and with MIA PaCa-2 was Active. For the same compound, the inhibition in vivo at 14 mg/kg/day with 786-0 [3] turned out to be 51%. Besides, the inhibition result in assay [4] was “Active”. The dissociation constant (Kd) (usually the equilibrium constant for the complex coming apart) at Sulfhydryl oxidase 1 was found to be 20 µM. Further, in the assay on MDA-MB-231 [5], the Activity is on record as 76%.
